Several values for one entry are separate records, joined by “and”; a condition that tells them apart may be missing. Identical values can stand only once.
Tested on: 186277-243-T-J2-PDC complex spheroids, viability
Assay: Anticancer human tumor 186277-243-T-J2-PDC patient-derived colon adenocarcinoma cell line growth inhibition [RAS]
Details: for viability, T/C: stronger effect = lower value; active = viability on the fitted dose curve at most 10% of control; inactive = the rest
Summary of the method: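 Tumour cells grown as complex spheroids with HUVEC endothelial cells and mesenchymal stem cells, treated with RAS pathway inhibitor combinations. Each agent spans half-log steps from near clinical Cmax, or 10 microM where Cmax is unknown.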

[1] = curve of first compound, second compound 0.000949 µM
[2] = curve of first compound, second compound 0.003 µM
[3] = curve of first compound, second compound 0.00949 µM
[4] = curve of first compound, second compound 0.03 µM
[5] = curve of first compound, second compound 0.0949 µM
[6] = curve of first compound, second compound 0.3 µM
[7] = second compound 0.000949 µM, first compound 0.0316 µM
[8] = second compound 0.000949 µM, first compound 0.1 µM
[9] = second compound 0.000949 µM, first compound 0.316 µM
[10] = second compound 0.000949 µM, first compound 1 µM
[11] = second compound 0.000949 µM, first compound 3.16 µM
[12] = second compound 0.000949 µM, first compound 10 µM
[13] = second compound 0.003 µM, first compound 0.0316 µM
[14] = second compound 0.003 µM, first compound 0.1 µM
[15] = second compound 0.003 µM, first compound 0.316 µM
[16] = second compound 0.003 µM, first compound 1 µM
[17] = second compound 0.003 µM, first compound 3.16 µM
[18] = second compound 0.003 µM, first compound 10 µM
[19] = second compound 0.00949 µM, first compound 0.0316 µM
[20] = second compound 0.00949 µM, first compound 0.1 µM
[21] = second compound 0.00949 µM, first compound 0.316 µM
[22] = second compound 0.00949 µM, first compound 1 µM
[23] = second compound 0.00949 µM, first compound 3.16 µM
[24] = second compound 0.00949 µM, first compound 10 µM
[25] = second compound 0.03 µM, first compound 0.0316 µM
[26] = second compound 0.03 µM, first compound 0.1 µM
[27] = second compound 0.03 µM, first compound 0.316 µM
[28] = second compound 0.03 µM, first compound 1 µM
[29] = second compound 0.03 µM, first compound 3.16 µM
[30] = second compound 0.03 µM, first compound 10 µM
[31] = second compound 0.0949 µM, first compound 0.0316 µM
[32] = second compound 0.0949 µM, first compound 0.1 µM
[33] = second compound 0.0949 µM, first compound 0.316 µM
[34] = second compound 0.0949 µM, first compound 1 µM
[35] = second compound 0.0949 µM, first compound 3.16 µM
[36] = second compound 0.0949 µM, first compound 10 µM
[37] = second compound 0.3 µM, first compound 0.0316 µM
[38] = second compound 0.3 µM, first compound 0.1 µM
[39] = second compound 0.3 µM, first compound 0.316 µM
[40] = second compound 0.3 µM, first compound 1 µM
[41] = second compound 0.3 µM, first compound 3.16 µM
[42] = second compound 0.3 µM, first compound 10 µM
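Note: spheroids exposed to compounds for 7 days before viability read.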

CCN1CCN(Cc2ccc(Nc3ncc(F)c(-c4cc(F)c5nc(C)n(C(C)C)c5c4)n3)nc2)CC1
> 1 µM: IC50 (curve of compound)
inactive: viability, T/C (compound 0.01 µM) 102% (3×) and 98.7% | viability, T/C (compound 0.1 µM) 127% [middle of 4 runs]

CC(C)NCC(C(=O)N1CCN(c2ncnc3c2C(C)CC3O)CC1)c1ccc(Cl)cc1 (configuration not stated) + CCn1c(-c2cccnc2C(C)OC)c2c3cc(ccc31)N1CCOC(CC(NC(=O)C(C(C)C)N(C)C(=O)C3(F)CCN(C(=O)C#CC(C)(C)N(C)C)CC3)C(=O)N3CCCC(N3)C(=O)OCC(C)(C)C2)C1
1.9 µM: IC50 [1]
0.726 µM: IC50 [5]
1.38 µM: IC50 [4]
0.349 µM: IC50 [6]
1.87 µM: IC50 [2]
inactive: viability, T/C [7] 88.1% | viability, T/C [8] 96.7% | viability, T/C [9] 108% | viability, T/C [10] 69% | viability, T/C [11] 40.5% | viability, T/C [12] 29.4% | viability, T/C [13] 83.4% | viability, T/C [14] 83.4% | viability, T/C [15] 88.2% | viability, T/C [16] 62.8% | viability, T/C [17] 39.9% | viability, T/C [18] 29.4% | viability, T/C [19] 90.2% | viability, T/C [20] 82.8% | viability, T/C [21] 89.2% | viability, T/C [22] 67% | viability, T/C [23] 43.9% | viability, T/C [24] 28% | viability, T/C [25] 104% | viability, T/C [26] 95.8% | viability, T/C [27] 108% | viability, T/C [28] 57.3% | viability, T/C [29] 36.6% | viability, T/C [30] 25.3% | viability, T/C [31] 99% | viability, T/C [32] 106% | viability, T/C [33] 72% | viability, T/C [34] 40.6% | viability, T/C [35] 34.7% | viability, T/C [36] 18.7% | viability, T/C [37] 99.2% | viability, T/C [38] 83.3% | viability, T/C [39] 51.8% | viability, T/C [40] 27.9% | viability, T/C [41] 20.4% | viability, T/C [42] 15.8%
2.29 µM: IC50 [3]

C[C@@H](NC(=O)c1ncnc(N)c1Cl)c1ncc(C(=O)Nc2cc(C(F)(F)F)c(Cl)cn2)s1 + CCn1c(-c2cccnc2C(C)OC)c2c3cc(ccc31)N1CCOC(CC(NC(=O)C(C(C)C)N(C)C(=O)C3(F)CCN(C(=O)C#CC(C)(C)N(C)C)CC3)C(=O)N3CCCC(N3)C(=O)OCC(C)(C)C2)C1
> 10 µM: IC50 [1] | IC50 [2] | IC50 [3] | IC50 [4] | IC50 [5] | IC50 [6]
inactive: viability, T/C [7] 103% | viability, T/C [8] 85.1% | viability, T/C [9] 87.7% | viability, T/C [10] 96.6% | viability, T/C [11] 104% | viability, T/C [12] 80.5% | viability, T/C [13] 91.5% | viability, T/C [14] 84.5% | viability, T/C [15] 90.7% | viability, T/C [16] 90.1% | viability, T/C [17] 92.9% | viability, T/C [18] 95.1% | viability, T/C [19] 101% | viability, T/C [20] 95.3% | viability, T/C [21] 93.1% | viability, T/C [22] 105% | viability, T/C [23] 94.6% | viability, T/C [24] 82.6% | viability, T/C [25] 93.8% | viability, T/C [26] 95.4% | viability, T/C [27] 89.2% | viability, T/C [28] 85.8% | viability, T/C [29] 95.7% | viability, T/C [30] 72.5% | viability, T/C [31] 102% | viability, T/C [32] 116% | viability, T/C [33] 104% | viability, T/C [34] 113% | viability, T/C [35] 110% | viability, T/C [36] 76.3% | viability, T/C [37] 109% | viability, T/C [38] 120% | viability, T/C [39] 114% | viability, T/C [40] 112% | viability, T/C [41] 103% | viability, T/C [42] 57%

From PubChem BioAssay AID2060908 (Molecular Pharmacology Branch, DTP, NCI, 2025)
